Test results from ChEMBL document CHEMBL3994638, “The juxtamembrane region of TrkA kinase is critical for inhibitor selectivity” (Bioorg Med Chem Lett, 2017).

Key:
[1] = biological target: NT-3 growth factor receptor (Homo sapiens, UniProt Q16288); experiment: Inhibition of recombinant human TrkC expressed in DHFR deficient CHO cells assessed as inhibition of human neurotrophin-3-induced calcium influx by Fluo-4 AM dye based assay; format: cell-based
[2] = biological target: T1, High affinity nerve growth factor receptor (Homo sapiens, UniProt P04629); experiment: Inhibition of recombinant human TrkA expressed in DHFR deficient CHO cells assessed as inhibition of human beta-nerve growth factor-induced calcium influx by Fluo-4 AM dye based assay; format: cell-based
T1 sequence (P04629 whole entry, the tested form may be a part): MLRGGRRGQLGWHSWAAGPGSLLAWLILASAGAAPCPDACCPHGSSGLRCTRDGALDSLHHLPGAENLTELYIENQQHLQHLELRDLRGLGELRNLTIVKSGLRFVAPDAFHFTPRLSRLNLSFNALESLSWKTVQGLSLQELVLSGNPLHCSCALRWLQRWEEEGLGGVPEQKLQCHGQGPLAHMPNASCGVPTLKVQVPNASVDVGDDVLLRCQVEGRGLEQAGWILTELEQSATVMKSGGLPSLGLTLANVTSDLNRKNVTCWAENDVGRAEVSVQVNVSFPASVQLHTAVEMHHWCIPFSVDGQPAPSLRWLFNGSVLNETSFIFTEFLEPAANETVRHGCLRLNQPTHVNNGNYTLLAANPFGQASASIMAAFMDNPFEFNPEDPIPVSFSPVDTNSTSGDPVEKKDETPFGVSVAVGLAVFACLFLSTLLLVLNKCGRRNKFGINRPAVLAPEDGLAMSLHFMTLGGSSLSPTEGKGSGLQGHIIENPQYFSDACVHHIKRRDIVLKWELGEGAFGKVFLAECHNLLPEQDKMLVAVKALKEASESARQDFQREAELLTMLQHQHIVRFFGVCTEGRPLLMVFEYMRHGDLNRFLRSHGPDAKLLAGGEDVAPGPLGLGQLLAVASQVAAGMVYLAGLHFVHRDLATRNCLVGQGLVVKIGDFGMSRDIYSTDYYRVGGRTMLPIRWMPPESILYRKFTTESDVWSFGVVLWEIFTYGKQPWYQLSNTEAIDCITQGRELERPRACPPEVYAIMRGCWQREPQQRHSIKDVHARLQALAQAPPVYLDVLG

[3] = biological target: T1, High affinity nerve growth factor receptor; experiment: Inhibition of juxtamembrane region containing recombinant human N-terminal His6-tagged/GST-tagged TrkA (473 to 796 residues) expressed in baculovirus infected Hi5 cells using TK substrate after 60 mins by HTRF assay
[4] = biological target: BDNF/NT-3 growth factors receptor (Homo sapiens, UniProt Q16620); experiment: Inhibition of recombinant human TrkB expressed in DHFR deficient CHO cells assessed as inhibition of human brain-derived neurotrophic factor-induced calcium influx by Fluo-4 AM dye based assay; format: cell-based
BDNF/NT-3 growth factors receptor, sequence (Q16620 whole entry, the tested form may be a part): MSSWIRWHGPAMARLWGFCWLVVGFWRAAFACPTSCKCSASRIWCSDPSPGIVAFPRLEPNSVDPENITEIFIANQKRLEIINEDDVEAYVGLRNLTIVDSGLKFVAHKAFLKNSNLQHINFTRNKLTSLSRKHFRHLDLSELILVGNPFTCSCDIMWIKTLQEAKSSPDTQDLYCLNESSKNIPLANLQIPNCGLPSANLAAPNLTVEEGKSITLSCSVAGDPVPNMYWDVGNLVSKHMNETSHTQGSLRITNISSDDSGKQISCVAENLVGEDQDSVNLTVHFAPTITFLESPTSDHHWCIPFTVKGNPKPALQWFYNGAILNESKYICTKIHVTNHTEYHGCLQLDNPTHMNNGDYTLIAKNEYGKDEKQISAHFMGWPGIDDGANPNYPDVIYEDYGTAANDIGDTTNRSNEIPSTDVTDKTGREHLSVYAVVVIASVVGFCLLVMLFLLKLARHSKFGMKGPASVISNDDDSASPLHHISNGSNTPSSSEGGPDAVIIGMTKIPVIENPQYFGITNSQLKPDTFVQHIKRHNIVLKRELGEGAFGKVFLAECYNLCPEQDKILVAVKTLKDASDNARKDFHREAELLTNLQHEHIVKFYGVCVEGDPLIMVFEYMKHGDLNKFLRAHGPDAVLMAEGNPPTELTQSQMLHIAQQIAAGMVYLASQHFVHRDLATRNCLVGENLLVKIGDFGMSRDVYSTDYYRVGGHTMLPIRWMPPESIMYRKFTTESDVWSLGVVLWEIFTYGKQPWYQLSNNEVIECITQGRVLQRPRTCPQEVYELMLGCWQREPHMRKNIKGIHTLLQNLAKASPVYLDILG

[5] = biological target: T1, High affinity nerve growth factor receptor; experiment: Inhibition of juxtamembrane region deficient recombinant human N-terminal His6-tagged/GST-tagged TrkA (498 to 796 residues) expressed in baculovirus infected Hi5 cells using TK substrate after 60 mins by HTRF assay

NT-3 growth factor receptor, sequence (Q16288 whole entry): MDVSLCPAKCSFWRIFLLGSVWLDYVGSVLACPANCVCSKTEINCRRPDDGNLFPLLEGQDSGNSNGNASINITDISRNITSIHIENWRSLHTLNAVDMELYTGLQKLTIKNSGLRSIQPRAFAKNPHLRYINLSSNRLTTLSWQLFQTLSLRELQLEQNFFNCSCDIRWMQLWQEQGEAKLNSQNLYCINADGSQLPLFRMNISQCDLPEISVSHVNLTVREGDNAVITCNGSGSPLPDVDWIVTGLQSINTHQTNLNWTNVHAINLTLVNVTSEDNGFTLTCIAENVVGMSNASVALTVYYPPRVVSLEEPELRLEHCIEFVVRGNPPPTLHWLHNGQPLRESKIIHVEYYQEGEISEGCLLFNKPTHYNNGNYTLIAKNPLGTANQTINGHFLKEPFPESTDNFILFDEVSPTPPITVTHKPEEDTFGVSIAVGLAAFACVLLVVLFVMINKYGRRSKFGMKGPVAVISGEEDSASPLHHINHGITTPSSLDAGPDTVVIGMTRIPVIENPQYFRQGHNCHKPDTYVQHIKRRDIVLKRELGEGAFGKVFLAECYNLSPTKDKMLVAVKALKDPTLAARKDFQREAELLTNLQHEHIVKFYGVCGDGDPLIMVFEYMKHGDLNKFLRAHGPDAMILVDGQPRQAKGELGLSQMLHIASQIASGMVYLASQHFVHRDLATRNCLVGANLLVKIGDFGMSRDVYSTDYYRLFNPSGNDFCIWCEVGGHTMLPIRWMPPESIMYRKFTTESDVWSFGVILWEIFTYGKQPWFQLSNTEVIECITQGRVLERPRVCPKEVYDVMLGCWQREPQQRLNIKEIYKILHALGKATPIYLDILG

SMILES | IC50 [1] [nM] | IC50 [2] [nM] | IC50 [3] [nM] | IC50 [4] [nM] | IC50 [5] [nM]
CCOc1nn(-c2ccccc2)c(NC(=O)N[C@@H]2CN(CCOC)C[C@H]2c2ccc(F)c(F)c2)c1C | 2480 | 2.7 | 6 | 1300 | 37200
COc1cc(-c2cn(CC(=O)Nc3cc(C4CC4)nn3-c3ccccc3)nn2)ccc1-n1cnc(C)c1 |  |  |  | 132 | 
CC(C)Oc1cc(Nc2nc(N[C@@H](C)c3ccc(F)cn3)ncc2Cl)n[nH]1 | 7.2 |  |  | 6.8 | 
